The source of these data is patent US10988459B2 (priority 2015, dated 2021).

This experiment deals with human RIP1 kinase domain (2-375) (Homo sapiens (Human), UniProt Q13546). In words: biochemical. The format is biochemical. The settings on record: 50 uM ATP. The method, then: Example 794: RIP1 Kinase Inhibition Assays (Biochemical Assay)
The compounds of the present invention were tested for their capacity to inhibit RIP1K activity as described below.
The ability of the receptor interacting protein kinase (RIPK1) to catalyze the hydrolysis of adenosine-5′-triphosphate (ATP) is monitored using the Transcreener ADP (adenosine-5′-diphosphate) assay (BellBrook Labs). Purified human RIP1 kinase domain (2-375) (50 nM) derived from a baculovirus-infected insect cell expression system is incubated with test compounds for 2 hours in 50 mM Hepes buffer (pH 7.5) containing 30 mM MgCl2, 1 mM dithiothreitol, 50 uM ATP, 0.002% Brij-35, and 0.5% dimethyl sulfoxide (DMSO). […] The tracer bound to the antibody is displaced by the ADP generated during the RIP1K reaction, which causes a decrease in fluorescence polarization that is measured by laser excitation at 633 nm with a FP microplate reader M1000. Fractional activity was plotted against test article concentration. Using Genedata Screener software (Genedata; Basel, Switzerland), the data were fit to the tight-binding apparent inhibition constant (Ki^app) Morrison equation [Williams, J. W. and Morrison, J. F. (1979) The kinetics of reversible tight-binding inhibition. Methods Enzymol 63: 437-67]. The following equation was used to calculate fractional activity and Ki^app:
[formula] where [E]T and [I]T are the total concentrations of active enzyme and test article, respectively.
“Method” in the first column of each table refers to the synthetic method(s) used to prepare each compound as shown in the Examples above. In certain examples, chiral column retention times (min) are provided for certain stereoisomers.

Setting [1] is: Table 5, apparent Ki (Morrison tight-binding fit), 50 nM RIP1 kinase domain, 2 hours incubation, read-out: Ki.
Setting [2] is: human RIP1 kinase domain (2-375), 2 hours incubation, Transcreener ADP assay, read-out: RIP1 Ki.
[3] abbreviates: tight-binding apparent inhibition constant, human RIP1 kinase domain (2-375) 50 nM, 2 hours, read-out: Ki.

Where two headings read alike, the source gives them in different places. Where only a bound is given, the exact number is not on record here.

Sequence of human RIP1 kinase domain (2-375) (Q13546 2-375): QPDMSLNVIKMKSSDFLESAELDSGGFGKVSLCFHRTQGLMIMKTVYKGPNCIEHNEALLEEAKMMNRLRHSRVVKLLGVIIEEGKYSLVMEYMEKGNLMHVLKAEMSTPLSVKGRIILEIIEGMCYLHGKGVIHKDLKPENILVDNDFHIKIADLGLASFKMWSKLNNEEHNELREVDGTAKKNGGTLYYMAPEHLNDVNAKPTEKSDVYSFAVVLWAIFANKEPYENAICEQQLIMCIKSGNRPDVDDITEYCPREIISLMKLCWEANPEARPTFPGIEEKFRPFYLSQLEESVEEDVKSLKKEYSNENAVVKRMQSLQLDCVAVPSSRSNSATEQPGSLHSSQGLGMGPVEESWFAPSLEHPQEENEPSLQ

As for `CN1C(=O)[C@@H](NC(=O)c2cc3c(-c4ccccc4)cccc3cn2)CCn2nccc21` (racemic) [Example 703, 5-phenyl-N-[rac-(6S)-4-methyl-5-oxo-7,8-dihydro-6H-pyrazolo[1,5-a][1,3]diazepin-6-yl]isoquinoline-3-carboxamide], the Ki under setting [1] was 24 nM. On to `CCn1ccc(-c2cc3n(n2)CCC(NC(=O)c2ncn(Cc4ccccc4)n2)C(=O)N3C)n1` (racemic) [Example 704, 1-benzyl-N-[2-(1-ethylpyrazol-3-yl)-4-methyl-5-oxo-7,8-dihydro-6H-pyrazolo[1,5-a][1,3]diazepin-6-yl]-1,2,4-triazole-3-carboxamide], for which the Ki under setting [1] stood at 95 nM.

For the compound `CN1C(=O)C(NC(=O)c2ncn(Cc3ccccc3)n2)CCn2nc(Cn3cccn3)cc21` (racemic) [Example 705, 1-benzyl-N-[4-methyl-5-oxo-2-(pyrazol-1-ylmethyl)-7,8-dihydro-6H-pyrazolo[1,5-a][1,3]diazepin-6-yl]-1,2,4-triazole-3-carboxamide], the Ki under setting [1] was 114 nM. `Cc1nccn1Cc1cc2n(n1)CCC(NC(=O)c1ncn(Cc3ccccc3)n1)C(=O)N2C` (racemic) [Example 706, 1-benzyl-N-[4-methyl-2-[(2-methylimidazol-1-yl)methyl]-5-oxo-7,8-dihydro-6H-pyrazolo[1,5-a][1,3]diazepin-6-yl]-1,2,4-triazole-3-carboxamide]: the Ki under setting [1] was 413 nM. On to `Cc1ncc(-c2cc3n(n2)CCC(NC(=O)c2ncn(Cc4ccccc4)n2)C(=O)N3C)n1C` (racemic) [Example 775, 1-benzyl-N-(2-(1,2-dimethyl-1H-imidazol-5-yl)-4-methyl-5-oxo-5,6,7,8-tetrahydro-4H-pyrazolo[1,5-a][1,3]diazepin-6-yl)-1H-1,2,4-triazole-3-carboxamide], for which the Ki under setting [1] turned out to be 182 nM. `Cc1nc(-c2cc3n(n2)CCC(NC(=O)c2ncn(Cc4ccccc4)n2)C(=O)N3C)cn1C` (racemic) [Example 776, 1-benzyl-N-(2-(1,2-dimethyl-1H-imidazol-4-yl)-4-methyl-5-oxo-5,6,7,8-tetrahydro-4H-pyrazolo[1,5-a][1,3]diazepin-6-yl)-1H-1,2,4-triazole-3-carboxamide]: under setting [1], the Ki worked out at 212 nM. On the same count and under the same terms, next, `CN1C(=O)C(NC(=O)c2ncn(Cc3ccccc3)n2)CCn2nc(-c3ccn(C)n3)cc21` (racemic) [Example 777, 1-benzyl-N-(4-methyl-2-(1-methyl-1H-pyrazol-3-yl)-5-oxo-5,6,7,8-tetrahydro-4H-pyrazolo[1,5-a][1,3]diazepin-6-yl)-1H-1,2,4-triazole-3-carboxamide]: 70 nM. As for `CN1C(=O)C(NC(=O)c2ncn(Cc3ccccc3)n2)CCn2nc(-c3cnn(C)c3)cc21` (racemic) [Example 778, 1-benzyl-N-(4-methyl-2-(1-methyl-1H-pyrazol-4-yl)-5-oxo-5,6,7,8-tetrahydro-4H-pyrazolo[1,5-a][1,3]diazepin-6-yl)-1H-1,2,4-triazole-3-carboxamide], the Ki under setting [1] was 171 nM. On to `O=C(N[C@H]1COc2cc(F)cc(F)c2NC1=O)c1n[nH]c2c1C[C@@H](C(F)(F)F)CC2` (single isomer, unassigned) [Example 86], for which the Ki under setting [2] came out at 20.8 nM.

Consider `O=C(N[C@H]1COc2cc(F)cc(F)c2NC1=O)c1n[nH]c2c1C[C@H](C(F)(F)F)CC2` (single isomer, unassigned) [Example 87], for which the Ki under setting [2] was found to be 104 nM.

Consider `CN1C(=O)[C@@H](NC(=O)c2cn(Cc3ccccc3)nn2)CCn2nc(C3CC3)cc21` (single isomer, unassigned) [Example 112], for which the Ki under setting [2] came out at 139 nM.

As for `CN1C(=O)[C@@H](NC(=O)c2nc3n(n2)[C@@H](c2ccccc2)CC3)CCn2nccc21` (single isomer, unassigned) [Example 125], the Ki under setting [2] worked out at 891 nM. On to `CN1C(=O)[C@@H](NC(=O)c2nc3n(n2)[C@H](c2ccccc2)CC3)CCn2nccc21` (single isomer, unassigned) [Example 126], for which the Ki under setting [2] came to 24.1 nM. On to `CN1C(=O)[C@@H](NC(=O)c2ncn(Cc3ccccc3)n2)CC[C@@H]2[C@H]1C2(F)F` (single isomer, unassigned) [Example 129], for which the Ki under setting [2] stood at 388 nM.

`CN1C(=O)[C@@H](NC(=O)c2ncn(Cc3ccccc3)n2)CC[C@H]2[C@@H]1C2(F)F` (single isomer, unassigned) [Example 130]: the Ki under setting [2] was more than 10000 nM. For the compound `CCOC(=O)[C@@H]1[C@@H]2CC[C@H](NC(=O)c3ncn(Cc4ccccc4)n3)C(=O)N(C)[C@@H]21` (single isomer, unassigned) [Example 131], the Ki under setting [2] turned out to be 1300 nM. For the compound `CCOC(=O)[C@H]1[C@H]2CC[C@H](NC(=O)c3ncn(Cc4ccccc4)n3)C(=O)N(C)[C@H]21` (single isomer, unassigned) [Example 132], the Ki under setting [2] stood at 5000 nM. Still for that read-out and setting: as for `CN1C(=O)[C@@H](NC(=O)c2cc3c(cn2)CO[C@@]32CCOC2)COc2ccccc21` (single isomer, unassigned) [Example 159], the figure is 327 nM; as for `CCn1nc(C(=O)N[C@H]2COc3ccccc3N(C)C2=O)c2c1CC[C@@H](C(F)(F)F)C2` (single isomer, unassigned) [Example 184], 407 nM. Consider `CCn1nc(C(=O)N[C@H]2COc3ccccc3N(C)C2=O)c2c1CC[C@H](C(F)(F)F)C2` (single isomer, unassigned) [Example 185], for which, under setting [2], the Ki stood at 825 nM. As to `Cc1cc(F)c2c(c1)OC[C@H](NC(=O)c1nc3n(n1)[C@H](C(C)C)CC3)C(=O)N2` (single isomer, unassigned) [Example 352], the Ki under setting [3] worked out at 96.9 nM. Same read-out and setting: next, `CC(C)[C@@H]1CCc2nc(C(=O)N[C@H]3CCn4nccc4N(C)C3=O)nn21` (single isomer, unassigned) [Example 353]: 49.8 nM; `Cc1cc(F)c2c(c1)OC[C@H](NC(=O)c1nc3n(n1)[C@@H](C(C)C)CC3)C(=O)N2` (single isomer, unassigned) [Example 354]: 4.5 nM. On to `CC[C@H]1CCc2nc(C(=O)N[C@H]3COc4ccccc4N(C)C3=O)nn21` (single isomer, unassigned) [Example 358], for which the Ki under setting [3] stood at 9 nM. On to `CC[C@@H]1CCc2nc(C(=O)N[C@H]3COc4ccccc4N(C)C3=O)nn21` (single isomer, unassigned) [Example 359], for which the Ki under setting [3] turned out to be 303 nM. Same read-out and setting: next, `CN1C(=O)[C@@H](NC(=O)c2nc3n(n2)[C@@H](c2ccccc2)CC3)CCn2nccc21` (single isomer, unassigned) [Example 362]: 896 nM; `CN1C(=O)[C@@H](NC(=O)c2nc3n(n2)[C@H](c2ccccc2)CC3)CCn2nccc21` (single isomer, unassigned) [Example 363]: 21.2 nM; `CN1C(=O)[C@@H](NC(=O)c2ncn(Cc3ccccc3)n2)CC[C@@H]2[C@H]1C2(F)F` (single isomer, unassigned) [Example 364]: 450 nM. Regarding `CC(O)c1cc2n(n1)CC[C@H](NC(=O)c1ncn(Cc3ccccc3)n1)C(=O)N2C` (single isomer, unassigned) [Example 367], under setting [3], the Ki worked out at 161 nM. As to `CC(O)c1cc2n(n1)CC[C@H](NC(=O)c1ncn(Cc3ccccc3)n1)C(=O)N2C` (single isomer, unassigned) [Example 368], the Ki under setting [3] stood at 154 nM. As for `CN1C(=O)C(NC(=O)c2ncn(Cc3ccccc3)n2)CCn2nc(C(C)(C)F)cc21` (single isomer, unassigned) [Example 369, 1-benzyl-N-[2-(1-fluoro-1-methyl-ethyl)-4-methyl-5-oxo-7,8-dihydro-6H-pyrazolo[1,5-a][1,3]diazepin-6-yl]-1,2,4-triazole-3-carboxamide], the Ki under setting [3] turned out to be 345 nM. For the compound `CN1C(=O)C(NC(=O)c2ncn(Cc3ccccc3)n2)CCn2nc(C(C)(C)F)cc21` (single isomer, unassigned) [Example 370, 1-benzyl-N-[2-(1-fluoro-1-methyl-ethyl)-4-methyl-5-oxo-7,8-dihydro-6H-pyrazolo[1,5-a][1,3]diazepin-6-yl]-1,2,4-triazole-3-carboxamide], the Ki under setting [3] was 555 nM. For `CN1C(=O)[C@@H](NC(=O)c2nc3n(n2)[C@H](c2ccccc2)CCC3)CCn2nccc21` (single isomer, unassigned) [Example 384], under setting [3], the Ki was determined as 2100 nM. For `CN1C(=O)[C@@H](NC(=O)c2nc3n(n2)[C@@H](c2cnn(C)c2)CCC3)CCn2nccc21` (single isomer, unassigned) [Example 404], under setting [3], the Ki is 318 nM. Still for that read-out and setting: as for `CC(C)[C@H]1CCCc2nc(C(=O)N[C@H]3COc4ccccc4N(C)C3=O)nn21` (single isomer, unassigned) [Example 413], the figure is 227 nM. For the compound `CN1C(=O)[C@@H](NC(=O)c2nc3n(n2)[C@@H](C(F)(F)F)CCC3)COc2ccccc21` (single isomer, unassigned) [Example 425], under setting [3], the Ki was 471 nM.

For `Cc1cc(F)c2c(c1)OC[C@H](NC(=O)c1nc3n(n1)[C@@H](C(F)(F)F)CCC3)C(=O)N2` (single isomer, unassigned) [Example 427], the Ki under setting [3] was 210 nM.
